Experimental data from patent publication US20230203043A1, “NOVEL IMIDAZOPYRAZINE DERIVATIVES” (Hoffmann-La Roche Inc., priority 2020, published 2023).
Structures can show the parent of a compound that is named as a salt. Where two headings read alike, the source gives them in different places.

Tested on: Acinetobacter baumannii ATCC17961
Experiment: Antimicrobial susceptibility testing: 90% growth inhibitory concentration (IC90) determination in Iso-Sensitest broth, OD600 growth
Format: cell-based
Settings: Acinetobacter baumannii, ATCC17961, 16 h
How it was run: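 Twofold compound dilutions (e.g. 50 to 0.097 μM final) in Iso-Sensitest broth with ~5×10^(5) CFU/ml, 35±2 °C. OD600 read every 20 min over 16 h; IC90 from growth inhibition during logarithmic phase.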

[1] = read-out: A. baumannii ATCC 17961 IC90 (uM), strain ATCC 17961, OD600 growth over 16 h
[2] = strain ATCC 17961, OD600 growth over 16 h, read-out: A. baumannii ATCC 17961 IC90

| SMILES | IC90 [1] [µM] | IC90 [2] [µM] |
| --- | --- | --- |
| CCc1cc(Nc2nccn3c(-c4cn(C(C)C#N)nc4C(F)(F)F)cnc23)ccc1C(=O)NCCOCCCN (stereo not drawn) [Example 639, N-(2-(3-aminopropoxy)ethyl)-4-((3-(1-(1-cyanoethyl)-3-(trifluoromethyl)-1H-pyrazol-4-yl)imidazo[1,2-a]pyrazin-8-yl)amino)-2-ethylbenzamide formate] | 0.228 |  |
| CCc1cc(Nc2nccn3c(-c4cn(CCF)nc4C(F)(F)F)cnc23)ccc1C(=O)NCC1CC1N (stereo not drawn) [Example 640, N-((2-aminocyclopropyl)methyl)-2-ethyl-4-((3-(1-(2-fluoroethyl)-3-(trifluoromethyl)-1H-pyrazol-4-yl)imidazo[1,2-a]pyrazin-8-yl)amino) benzamide formate] |  | 0.229 |
| CCc1cc(Nc2nccn3c(-c4cn(CC(F)F)nc4C(F)(F)F)cnc23)ccc1C(=O)NCC1CC1N (stereo not drawn) [Example 641, N-((2-aminocyclopropyl)methyl)-4-((3-(1-(2,2-difluoroethyl)-3-(trifluoromethyl)-1H-pyrazol-4-yl)imidazo[1,2-a]pyrazin-8-yl)amino)-2-ethylbenzamide formate] | 0.231 |  |
| CCc1cc(Nc2nccn3c(-c4cn(CC(F)F)nc4C(F)(F)F)cnc23)ccc1C(=O)NCC(=O)NC1CC(N)C1 (stereo not drawn) [Example 642, N-[2-[(3-aminocyclobutyl)amino]-2-oxo-ethyl]-4-[[3-[1-(2,2-difluoroethyl)-3-(trifluoromethyl)pyrazol-4-yl]imidazo[1,2-a]pyrazin-8-yl]amino]-2-ethyl-benzamide formate] | 0.232 |  |
| CCc1cc(Nc2nccn3c(-c4cn(CC(F)F)nc4C(F)(F)F)cnc23)ccc1C(=O)NCCNC(=O)[C@@H](C)N [Example 643, (R)-N-(2-(2-aminopropanamido)ethyl)-4-((3-(1-(2,2-difluoroethyl)-3-(trifluoromethyl)-1H-pyrazol-4-yl)imidazo[1,2-a]pyrazin-8-yl)amino)-2-ethylbenzamide formate] | 0.232 |  |
| CCc1cc(Nc2nccn3c(-c4cn(CC(O)C(F)(F)F)nc4C(F)(F)F)cnc23)ccc1C(=O)NCCOCCN (stereo not drawn) [Example 644, N-(2-(2-aminoethoxy)ethyl)-2-ethyl-4-((3-(1-(3,3,3-trifluoro-2-hydroxypropyl)-3-(trifluoromethyl)-1H-pyrazol-4-yl)imidazo [1,2-a]pyrazin-8-yl)amino) benzamide] |  | 0.24 |
| CCc1cc(Nc2nccn3c(-c4cn(C(C)C#N)nc4C(F)(F)F)cnc23)ccc1C(=O)NCCOCCN1CCCC1 (stereo not drawn) [Example 645, 4-((3-(1-(1-cyanoethyl)-3-(trifluoromethyl)-1H-pyrazol-4-yl)imidazo[1,2-a]pyrazin-8-yl)amino)-2-ethyl-N-(2-(2-(pyrrolidin-1-yl)ethoxy)ethyl)benzamide formate] | 0.242 |  |
| C#CCn1cc(-c2cnc3c(Nc4cc(C)c(C(=O)N5CCN(C(=O)[C@H]6CC[C@H](O)N6)CC5)c(F)c4)nccn23)c(C(F)(F)F)n1 [Example 646, (4-(2-fluoro-6-methyl-4-((3-(1-(prop-2-yn-1-yl)-3-(trifluoromethyl)-1H-pyrazol-4-yl)imidazo[1,2-a]pyrazin-8-yl)amino)benzoyl)piperazin-1-yl)((2R,5S)-5-hydroxypyrrolidin-2-yl)methanone] |  | 0.243 |
| C[C@@H](NC(=O)c1ccc(Nc2nccn3c(-c4cn(CC#N)nc4C(F)(F)F)cnc23)cc1Cl)C(=O)N1CCNCC1 [Example 647, 2-chloro-4-[[3-[1-(cyanomethyl)-3-(trifluoromethyl)pyrazol-4-yl]imidazo[1,2-a]pyrazin-8-yl]amino]-N-[(1R)-1-methyl-2-oxo-2-piperazin-1-yl-ethyl]benzamide formate] | 0.244 |  |
| CCc1cc(Nc2nccn3c(-c4cn(CC(F)F)nc4C(F)(F)F)cnc23)ccc1C(=O)NCC(=O)N[C@@H]1CCNC1 [Example 648, 4-[[3-[1-(2,2-difluoroethyl)-3-(trifluoromethyl)pyrazol-4-yl]imidazo[1,2-a]pyrazin-8-yl]amino]-2-ethyl-N-[2-oxo-2-[[(3R)-pyrrolidin-3-yl]amino]ethyl] benzamide formate] |  | 0.246 |
| CCc1cc(Nc2nccn3c(-c4cn(CC(F)F)nc4C(F)(F)F)cnc23)ccc1C(=O)N[C@H](C)CNC(=O)[C@@H]1CCCN1 [Example 649, (S)-N-((R)-2-(4-((3-(1-(2,2-difluoroethyl)-3-(trifluoromethyl)-1H-pyrazol-4-yl)imidazo[1,2-a]pyrazin-8-yl)amino)-2-ethylbenzamido)propyl)pyrrolidine-2-carboxamide] |  | 0.247 |
| Cc1cc(Nc2nccn3c(-c4cn(CC(F)F)nc4C(F)(F)F)cnc23)cc(F)c1C(=O)N1CCN(C(=O)CN)CC1 [Example 650, 2-amino-1-(4-(4-((3-(1-(2,2-difluoroethyl)-3-(trifluoromethyl)-1H-pyrazol-4-yl)imidazo[1,2-a]pyrazin-8-yl)amino)-2-fluoro-6-methylbenzoyl)piperazin-1-yl)ethan-1-one] |  | 0.252 |
| NCC(=O)N1CC2(C1)CN(C(=O)c1ccc(Nc3nccn4c(-c5cn(CC(F)F)nc5C(F)(F)F)cnc34)cc1Cl)C2 [Example 651, 2-amino-1-(6-(2-chloro-4-((3-(1-(2,2-difluoroethyl)-3-(trifluoromethyl)-1H-pyrazol-4-yl)imidazo[1,2-a]pyrazin-8-yl)amino)benzoyl)-2,6-diazaspiro[3.3]heptan-2-yl)ethan-1-one] |  | 0.254 |
| CCc1cc(Nc2nccn3c(-c4c[nH]nc4C(F)(F)F)cnc23)ccc1C(=O)NCCCNC(=O)[C@H](C)N [Example 652, (S)-N-(3-(2-aminopropanamido)propyl)-2-ethyl-4-((3-(3-(trifluoromethyl)-1H-pyrazol-4-yl)imidazo [1,2-a]pyrazin-8-yl)amino)benzamide formate] | 0.259 |  |
| Cc1cc(Nc2nccn3c(-c4cn(CC(F)F)nc4C(F)(F)F)cnc23)cc(F)c1C(=O)N[C@H](C)CNC(=O)[C@H]1[C@@H]2CNC[C@@H]21 [Example 653, (1R,5S,6r)-N-((R)-2-(4-((3-(1-(2,2-difluoroethyl)-3-(trifluoromethyl)-1H-pyrazol-4-yl)imidazo [1,2-a]pyrazin-8-yl)amino)-2-fluoro-6-methylbenzamido)propyl)-3-azabicyclo[3.1.0]hexane-6-carboxamide] |  | 0.259 |
| CCc1cc(Nc2nccn3c(-c4cn(CC#N)nc4C(F)(F)F)cnc23)ccc1C(=O)N[C@H](C)CNC(=O)[C@@H]1CCCN1 [Example 654, (S)-N-((R)-2-(4-((3-(1-(cyanomethyl)-3-(trifluoromethyl)-1H-pyrazol-4-yl)imidazo[1,2-a]pyrazin-8-yl)amino)-2-ethylbenzamido)propyl) pyrrolidine-2-carboxamide] |  | 0.263 |
| CCc1cc(Nc2nccn3c(-c4cn(CCC(C)(C)Cl)nc4C(F)(F)F)cnc23)ccc1C(=O)NCCOCCN [Example 655, N-(2-(2-aminoethoxy)ethyl)-4-((3-(1-(3-chloro-3-methylbutyl)-3-(trifluoromethyl)-1H-pyrazol-4-yl)imidazo[1,2-a]pyrazin-8-yl)amino)-2-ethylbenzamide] |  | 0.266 |
| N#CCn1cc(-c2cnc3c(Nc4ccc(C(=O)NCC(=O)N5CC[C@H](N)C5)c(Cl)c4)nccn23)c(C(F)(F)F)n1 [Example 656, N-[2-[(3S)-3-aminopyrrolidin-1-yl]-2-oxo-ethyl]-2-chloro-4-[[3-[1-(cyanomethyl)-3-(trifluoromethyl)pyrazol-4-yl]imidazo[1,2-a]pyrazin-8-yl]amino] benzamide formate] |  | 0.266 |
| NCC(=O)N1CC2(C1)CN(C(=O)c1ccc(Nc3nccn4c(-c5c[nH]nc5C(F)(F)F)cnc34)cc1Cl)C2 [Example 658, 2-amino-1-(6-(2-chloro-4-((3-(3-(trifluoromethyl)-1H-pyrazol-4-yl)imidazo[1,2-a]pyrazin-8-yl)amino)benzoyl)-2,6-diazaspiro[3.3]heptan-2-yl)ethan-1-one] |  | 0.269 |
| N#CCn1cc(-c2cnc3c(Nc4ccc(C(=O)N5CC6(CN(C(=O)CN)C6)C5)c(Cl)c4)nccn23)c(C(F)(F)F)n1 [Example 659, 2-(4-(8-((3-chloro-4-(6-glycyl-2,6-diazaspiro[3.3]heptane-2-carbonyl)phenyl)amino)imidazo[1,2-a]pyrazin-3-yl)-3-(trifluoromethyl)-1H-pyrazol-1-yl)acetonitrile] |  | 0.27 |
| N#CCn1cc(-c2cnc3c(Nc4ccc(C(=O)NCC(=O)NC5CC(N)C5)c(Cl)c4)nccn23)c(C(F)(F)F)n1 (stereo not drawn) [Example 660, N-[2-[(3-aminocyclobutyl)amino]-2-oxo-ethyl]-2-chloro-4-[[3-[1-(cyanomethyl)-3-(trifluoromethyl)pyrazol-4-yl]imidazo[1,2-a]pyrazin-8-yl]amino] benzamide formate] |  | 0.277 |
| CCc1cc(Nc2nccn3c(-c4cn(C5CCC5)nc4C(F)(F)F)cnc23)ccc1C(=O)NCCOCCN1CCOCC1 [Example 661, 4-((3-(1-cyclobutyl-3-(trifluoromethyl)-1H-pyrazol-4-yl)imidazo[1,2-a]pyrazin-8-yl)amino)-2-ethyl-N-(2-(2-morpholinoethoxy)ethyl) benzamide formate] |  | 0.279 |
| C#CCn1cc(-c2cnc3c(Nc4cc(C)c(C(=O)N[C@H](C)CN)c(F)c4)nccn23)c(C(F)(F)F)n1 [Example 662, (R)-N-(1-aminopropan-2-yl)-2-fluoro-6-methyl-4-((3-(1-(prop-2-yn-1-yl)-3-(trifluoromethyl)-1H-pyrazol-4-yl)imidazo [1,2-a]pyrazin-8-yl)amino)benzamide] |  | 0.284 |
| N#CCn1cc(-c2cnc3c(Nc4ccc(C(=O)NCC(=O)N5CC[C@@H](N)C5)c(Cl)c4)nccn23)c(C(F)(F)F)n1 [Example 663, N-[2-[(3R)-3-aminopyrrolidin-1-yl]-2-oxo-ethyl]-2-chloro-4-[[3-[1-(cyanomethyl)-3-(trifluoromethyl)pyrazol-4-yl]imidazo[1,2-a]pyrazin-8-yl]amino]benzamide formate] | 0.285 |  |
